# Several values for one entry are separate records, joined by “and”; a condition that tells them apart may be missing. Equal values may be shown once. Read-outs that look alike come from different tables or passages of the source.
# Experiments:
# [1] = in vitro; conditions: human
# [2] = in vitro; conditions: PAMPA
# [3] = test system: CHIKV; assay: microbe, parasite or virus in culture; assay type: cell-based; conditions: Chikungunya virus, U2OS, read-out: CHIKV EC50
# [4] = in vitro
# [5] = rat, microsomes
# [6] = test system: WEEV; assay: microbe, parasite or virus in culture; assay type: cell-based; conditions: Western equine encephalitis virus, HeLa, read-out: WEEV EC50
# [7] = test system: VEEV-TC83; assay: microbe, parasite or virus in culture; assay type: cell-based; conditions: Venezuelan equine encephalitis virus, HeLa, read-out: VEEV-TC83 EC50
# [8] = target: T1, VEEV nsP2 protease (Venezuelan equine encephalitis virus, UniProt P27282); assay: biochemical; conditions: for kinact/KI: read-out: VEEV nsP2 PROTEASE k2/Ki
# [9] = physchem
# [10] = test system: VEEV-Trinidad; assay: microbe, parasite or virus in culture; assay type: cell-based; conditions: Venezuelan equine encephalitis virus
# [11] = in vitro; conditions: SD, rat, microsomes
# [12] = test system: EEEV; assay: microbe, parasite or virus in culture; assay type: cell-based; conditions: Eastern equine encephalitis virus, A549, read-out: EEEV EC50
# [13] = test system: VEEV Trinidad; assay type: cell-based, Venezuelan equine encephalitis virus
# [14] = target: T1, VEEV nsP2 protease; assay: biochemical; assay type: biochemical
# [15] = test system: cell viability
# [16] = test system: VEEV-Trd; assay: microbe, parasite or virus in culture; assay type: cell-based, Venezuelan equine encephalitis virus; conditions: for EC50: read-out: EC50
# [17] = test system: CHIKV; assay type: cell-based, Chikungunya virus
# [18] = test system: VEEV; assay type: cell-based, Venezuelan equine encephalitis virus
# [19] = test system: EEEV; assay type: cell-based, eastern equine encephalitis virus
# [20] = test system: WEEV; assay type: cell-based, Western equine encephalitis virus
# [21] = target: T1, VEEV nsP2 protease; assay type: biochemical
# [22] = A549, read-out: VEEV-Trinidad EC50
# T1 sequence (P27282 1003-1322 limits assumed): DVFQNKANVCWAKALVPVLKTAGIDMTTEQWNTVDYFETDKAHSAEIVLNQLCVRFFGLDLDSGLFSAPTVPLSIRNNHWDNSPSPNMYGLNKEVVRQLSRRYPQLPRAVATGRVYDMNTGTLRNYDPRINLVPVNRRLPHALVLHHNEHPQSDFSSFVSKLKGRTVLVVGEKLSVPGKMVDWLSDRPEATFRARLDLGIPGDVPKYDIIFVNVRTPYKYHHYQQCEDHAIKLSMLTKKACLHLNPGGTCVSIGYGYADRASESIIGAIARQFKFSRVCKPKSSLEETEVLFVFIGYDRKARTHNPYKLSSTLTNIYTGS
smiles,measurement,setting,value
CC(C)CCNC(=O)[C@H](CC(C)C)NC(=O)[C@H]1O[C@@H]1C(=O)NCc1ccncc1 [NCGC00488908-01],CC50,[1],> 50 µM
same,Papp,[2],7.6 ×10⁻⁶ cm/s
same,EC50,[3],50 µM
same,CC50,[4]; African green monkey,> 100 µM
same,CC50,[4]; human,> 50 µM
same,Rat_SD/Microsomes t1/2,[5],>30 m
same,EC50,[6],14.6 µM
same,EC50,[7],9.23 µM
same,kinact/KI,[8],23 M⁻¹ s⁻¹
same,solubility,[9],> 60 µg/mL
same,PAMPA,,7.6 ×10⁻⁶ cm/s
same,EC50,[10]; A549,9.5 µM
same,EC50,[10]; [22],9.45 µM
same,half-life,[11],> 30 min
same,EC50,[12],≥ 100 µM
O=c1[nH]c2ccccc2n1CCCN1CCN(C(c2ccccc2)c2ccccc2)CC1 [oxatomide],antiviral activity in plaque assays,[13],notable antiviral activities
same,reduction of VEEV viral replication in plaque assays,[13],> 5 log
CC(C)CCNC(=O)[C@H](CC(C)C)NC(=O)[C@H]1O[C@@H]1C(=O)NCc1ccc(C#N)cc1 [NCGC00488904-01],CC50,[1],> 50 µM
same,EC50,[3],14.8 µM
same,CC50,[4]; African green monkey,> 100 µM
same,CC50,[4]; human,> 50 µM
same,EC50,[6],5.15 µM
same,EC50,[7],4.09 µM
same,kinact/KI,[8],61 M⁻¹ s⁻¹
same,EC50,[10]; A549,4 µM
same,EC50,[10]; [22],4.29 µM
same,EC50,[12],16.2 µM
COc1cc2c(cc1OC)C(c1cc(Br)ccc1F)N(C(=O)CCl)CC2 (stereo not shown) [MLS001198393-01],IC50,[14]; read-out: IC50,> 200 µM
same,CC50,[15],> 50 µM
same,EC50,[16],> 16.7 µM
O=C(Nc1ccccc1)NN(C(=O)CCl)c1ccccc1 [MLS001177992-01],CC50,[15],> 50 µM
same,EC50,[16],> 50 µM
CC(C)CCNC(=O)[C@H](CC(C)C)NC(=O)[C@H]1O[C@@H]1C(=O)NCCCCO [NCGC00488906-01],CC50,[1],> 50 µM
same,EC50,[3],18.5 µM
same,CC50,[4]; African green monkey,> 100 µM
same,CC50,[4]; human,> 50 µM
same,Rat_SD/Microsomes t1/2,[5],>30 m
same,EC50,[6],20.4 µM
same,EC50,[7],26.6 µM
same,kinact/KI,[8],12 M⁻¹ s⁻¹
same,solubility,[9],15.9 µg/mL
same,EC50,[10]; A549,26 µM
same,EC50,[10]; [22],26.4 µM
same,half-life,[11],> 30 min
same,EC50,[12],> 100 µM
"CCCNC(=O)[C@H]1O[C@@H]1C(=O)N[C@H](C(=O)N1CCC[C@H]1C(=O)OC)[C@@H](C)CC [CA074me, CA074 methyl ester]",Papp,[2],33 ×10⁻⁶ cm/s
same,CC50,[4]; African green monkey,> 100 µM
same,Rat_SD/Microsomes t1/2,[5],11.1 m
same,reduction in PFU,[17],2 log
same,efficacy in plaque assays,[18],effective
same,reduction in plaque-forming units (PFU),[18],~6 log
same,viral titer reduction,[18],> 5 logs
same,reduction in plaque forming units (PFU),[13],~ 5 log
same,Ki,[8],1200 ± 500 µM
same,solubility,[9],22 µg/mL
same,Average titer,[19],3.12 × 10^4 and 3.20 × 10^6 and 3.18 × 10^7 and 4.57 × 10^7
same,reduction in PFU,[19],2 log
same,reduction in PFU,[20],2 log
same,PAMPA,,33 ×10⁻⁶ cm/s
same,EC50,[10]; A549,11 µM
same,half-life,[11],11.1 min
"CC(C)CCNC(=O)C(CC(C)C)NC(=O)C1OC1C(=O)O (stereo not shown) [E64c, reference compound]",Papp,[2],< 1 ×10⁻⁶ cm/s
same,CC50,[4]; African green monkey,> 100 µM
same,Rat_SD/Microsomes t1/2,[5],>30 m
same,inhibition in discontinuous assays (SDS-PAGE gels),[21],partial inhibition
same,solubility,[9],33 µg/mL
same,efficacy in cell-based assays,[16],ineffective
same,EC50,[10]; A549,> 100 µM
CC(=O)NC1C(=O)N(CCN2CCOCC2)c2ccc(F)cc21 (stereo not shown) [MLS001215963-01],IC50,[14],16 ± 3 µM
CC(C)CCNC(=O)[C@H](CC(C)C)NC(=O)[C@H]1O[C@@H]1C(=O)NCCCO [NCGC00487434-01],CC50,[4]; African green monkey,> 100 µM
same,Rat_SD/Microsomes t1/2,[5],>30 m
same,solubility,[9],22 µg/mL
same,EC50,[10]; A549,70 to 80 µM
CC(C)CCNC(=O)[C@H](CC(C)C)NC(=O)[C@H]1O[C@@H]1C(=O)NCc1cccc(C#N)c1 [NCGC00488909-01],CC50,[1],> 50 µM
same,EC50,[3],9.85 µM
same,CC50,[4]; African green monkey,> 100 µM
same,CC50,[4]; human,> 50 µM
same,EC50,[6],5.02 µM
same,EC50,[7],1.48 µM
same,Ki,[8],3 µM
same,kinact/KI,[8],862 M⁻¹ s⁻¹
same,EC50,[10]; A549,1.8 µM
same,EC50,[10]; [22],1.76 µM
same,EC50,[12],43 µM
O=c1[nH]c(=O)n(-c2ccccc2F)c(O)c1/C=C1\C=Nc2ccccc21 [MLS001197204-01],IC50,[14]; read-out: IC50,30 ± 20 µM
same,CC50,[15],> 50 µM
same,EC50,[16],> 50 µM
CCC(C)C(NC(=O)C1OC1C(=O)NC(CC(C)C)C(=O)NCCC(C)C)C(=O)N1CCCC1C(=O)OCc1ccccc1 (stereo not shown) [NCGC00484087-01],CC50,[1],> 50 µM
same,Papp,[2],1090 ×10⁻⁶ cm/s
same,CC50,[4]; African green monkey,> 100 µM
same,CC50,[4]; human,> 50 µM
same,Rat_SD/Microsomes t1/2,[5],1.5 m
same,EC50,[6],5.74 µM
same,EC50,[7],2.17 µM
same,Ki,[8],5 µM
same,kinact/KI,[8],100 M⁻¹ s⁻¹
same,solubility,[9],4.1 µg/mL
same,PAMPA,,1089.1 ×10⁻⁶ cm/s
same,EC50,[10]; A549,8 µM
same,EC50,[10]; [22],7.9 µM
same,half-life,[11],1.5 min
same,EC50,[12],13.2 µM
COc1cc(NS(C)(=O)=O)ccc1Nc1c2ccccc2nc2ccccc12 [amsacrine],antiviral activity in plaque assays,[13],notable antiviral activities
CCc1nc(N2CCN(C(=O)CCl)CC2)c2c3c(sc2n1)CC(C)CC3 (stereo not shown) [MLS001212815-01],IC50,[14]; read-out: IC50,> 200 µM
same,CC50,[15],> 50 µM
same,EC50,[16],> 50 µM

# Source: publication PMC10385868 (Viruses, 2023)
